Test results reported in US8895569B2, “Carbocyclic nucleosides and their pharmaceutical use and compositions” (Cellceutix Corporation, priority 2012, dated 2014).

Assays:
[1] = test system: Psoriasis susceptibility related RNA Gene Induced by Stress (PRINS); assay: PRINS expression in human psoriatic tissue transplants on SCID mice; format: in vivo, SCID mice bearing human psoriatic tissue; conditions: for PRINS: control 49
Method: (§1) In order to examine efficacy of the (−) cis-[4-[2-amino-6-(cyclopropylamino)-9H-purin-9-yl]-2-cyclopentene-1-hydroxymethyl acetate in mice, male and female SCID mice (24 to 28 gms) 6 to 8 weeks old were purchased from Charles River Laboratory (Wilmington, Mass.). The animals were kept in standard rodent cages with isolator tops at 18-26° C., and a relative humidity of 30-70% on a 12 hour light/12 hour dark cycle. Mice were given rodent chow and water ad libitum. […] Suitable animals were selected for the assigned study.
(§2) Mice were subjected to total body irradiation to mildly suppress immune system at 120 rads per animal in a Gamma Cell Radiator. Mice were identified by ear punching.
(§3) 24 Hours after the TBI, a 5 mm×5 mm cut of the human psoriatic tissue was transplanted on the skin of the mice, under ketamine/xylazine anesthesia. The tissues were adherent by using a skin cement. All animals survived the anesthesia and the surgery for the experiment. The complete fusion of the tissues was achieved by day 27. During treatments, mice were observed daily for any adverse affects. Mice body weights were taken prior to treatment and every other day during the post treatment. If an animal became unwell, any treatment of that animal was suspended. If there was no recovery, the animal was sacrificed. […] Mice transplant area size measurements were taken prior to treatment and every other day during and post treatment. The same scientist was responsible for taking the measurements throughout the study.
(§4) Groups of 5 male mice and 5 female mice bearing psoriatic tissues were treated with either (−) cis-[4-[2-amino-6-(cyclopropylamino)-9H-purin-9-yl]-2-cyclopentene-1-hydroxymethyl acetate (Prurisol) alone or methotrexate (MTX) according to the schedule below. Another group of mice remained untreated to serve as controls.
(§5) Prurisol was administered orally (PO) to the mice, along with the topical application at 8 hour intervals on the effected area. […] In psoriasis, anti-apoptotic protein G1P3 is over expressed, which is regulated by the non-coding RNA. Psoriasis susceptibility related RNA Gene Induced by Stress (PRINS) was examined in control animal's transplants and treated ones (the expression in psoriatic plaques will be 10 times higher), and results from these studies are shown below.

IL-20 = IL-20 in tissue measured by ELISA, psoriatic xenograft SCID mice; format: in vivo, SCID mice bearing human psoriatic tissue; conditions: for IL-20: ELISA, control 178; for reduction of IL-20 concentration in tissue: versus control
Method: as §1, §2, §3, §4
IL-20 was also measured using ELISA technique and data is also shown below.

human psoriatic tissue = assay: Recovery from psoriasis in SCID mice implanted with human psoriatic tissue; format: in vivo; conditions: 10 mg, one time per day or BID
Method: as §1, §2
24 Hours after the TBI, a 5 mm×5 mm cut of the human psoriatic tissue was transplanted on the skin of the mice, under ketamine/xylazine anesthesia. The tissues were adherent by using a skin cement. All animals survived the anesthesia and the surgery for the experiment. The complete fusion of the tissues was achieved by day 27. During treatments, mice were observed daily for any adverse affects. Mice body weights were taken prior to treatment and every other day during the post treatment. If an animal became unwell, any treatment of that animal was suspended. If there was no recovery, the animal was sacrificed. […]

Storage stability = format: physicochemical; conditions: stored at ambient temperature, protected from light
[2] = Weight changes of treated mice; format: in vivo, SCID mice
Method: as §3, §5

[3] = Oral bioavailability and disposition of Prurisol; conditions: in vivo
[4] = Prurisol 10 mg/kg, MTX 7.5 mg/kg

stability (Storage stability)	weight loss ([2]; 5 mg/kg on days 11 to 35 and 20 mg/kg topically)	weight loss due to administration ([2]; orally (PO) along with topical application at 8 hour intervals)	bioavailability ([3]; oral, read-out: oral bioavailability (% F)) [%]	Compound	PRINS [1, 4]	IL-20 (IL-20; [4])	reduction of IL-20 concentration in tissue (IL-20) [fold]	PRINS ([1]; Prurisol × 2 (2×10 mg/kg))	PRINS reduction in comparison to methotrexate ([1]; in vivo)	recovery from psoriasis (skin appearance, FIG. 6) (human psoriatic tissue)	IL-20 (IL-20; Prurisol × 2 (2×10 mg/kg))	crossing the blood brain barrier [3]	metabolism route [3]
–	–	–	–	CN(Cc1cnc2nc(N)nc(N)c2n1)c1ccc(C(=O)N[C@@H](CCC(=O)O)C(=O)O)cc1 [MTX, methotrexate, reference compound]	28	127	1.4	–	–	–	–	–	–
stable	no weight loss	within acceptable limits	83	Nc1nc(NC2CC2)c2ncn([C@H]3C=C[C@@H](COC(=O)CO)C3)c2n1 [Prurisol]	24	54	3	5	reduces PRINS significantly	recovered from psoriasis	18	capable of crossing the blood brain barrier	metabolized primarily through alcohol dehydrogenase or glucuronyl transferase
